For nine compounds, IC50 results are on record in US20040037843A1, “Inducing cellular immune responses to prostate cancer antigens using peptide and nucleic acid compositions” (priority 2003, published 2004).

The target in the first test is HLA-A*0201 (Homo sapiens, UniProt P04439, D140Y/D185E/D98H/E176V/E277Q/G131W/G231S/I119V/I121R/I166T/I218V/L300P/L318F/N151K/N90K/P208A/P217A/Q86G/Q94H/R138H/R169H/T345S). Description: HLA class I binding assay, purified HLA, inhibition of 125I-labelled probe peptide. The following applies: Binding affinity, Table XXII group headings ≦ 200 nM / > 200 nM; binding to HLA-A*0201.
Turning to `CC(C)C[C@H](NC(=O)[C@H](CC(C)C)NC(=O)CNC(=O)[C@H](CC(N)=O)NC(=O)[C@H](Cc1ccc(O)cc1)NC(=O)[C@@H](NC(=O)[C@H](CC(=O)O)NC(=O)[C@H](CC(C)C)NC(=O)[C@H](C)N)C(C)C)C(=O)O` [PAP.299], the IC50 was ≤ 200 nM.

The same test, now with this note: Table XXII group headings ≦ 200 nM / > 200 nM; binding to HLA-A*0201; read-out: Binding affinity.
For `CC(C)C[C@H](NC(=O)[C@H](CO)NC(=O)[C@H](CC(C)C)NC(=O)[C@H](CO)NC(=O)[C@H](C)NC(=O)[C@H](C)NC(=O)[C@H](CCCNC(=N)N)NC(=O)[C@H](C)NC(=O)[C@H](CC(C)C)NC(=O)[C@H](CC(C)C)NC(=O)[C@@H](N)CC(C)C)C(=O)O` [PAP.6], the IC50 is ≤ 200 nM. With `CC(C)C[C@H](NC(=O)[C@@H](N)Cc1ccccc1)C(=O)N[C@@H](CC(N)=O)C(=O)N[C@@H](CCC(=O)O)C(=O)N[C@@H](CO)C(=O)N[C@@H](Cc1ccc(O)cc1)C(=O)N[C@@H](CCCCN)C(=O)N[C@@H](Cc1c[nH]cn1)C(=O)N[C@@H](CCC(=O)O)C(=O)N[C@@H](CCC(N)=O)C(=O)N[C@H](C(=O)O)C(C)C` [PAP.92], the IC50 is ≤ 200 nM.

With `CC(C)C[C@H](NC(=O)[C@@H](N)CC(C)C)C(=O)N[C@@H](Cc1c[nH]cn1)C(=O)N[C@@H](CCC(=O)O)C(=O)N[C@H](C(=O)N[C@@H](CC(=O)O)C(=O)N[C@@H](CO)C(=O)N[C@@H](C)C(=O)N[C@H](C(=O)O)C(C)C)[C@@H](C)O` [PSM.4], the IC50 is > 200 nM. Still for that read-out and setting: as for `CC(C)C[C@H](NC(=O)[C@H](Cc1ccccc1)NC(=O)[C@H](Cc1ccccc1)NC(=O)CNC(=O)CNC(=O)[C@H](C)NC(=O)[C@H](CC(C)C)NC(=O)[C@@H](NC(=O)[C@H](CC(C)C)NC(=O)[C@H](C)N)C(C)C)C(=O)O` [PSM.25], the figure is > 200 nM; as for `CC(C)C[C@H](NC(=O)[C@H](Cc1ccccc1)NC(=O)[C@H](Cc1ccccc1)NC(=O)CNC(=O)CNC(=O)[C@H](C)NC(=O)[C@H](CC(C)C)NC(=O)[C@@H](NC(=O)[C@@H](N)CC(C)C)C(C)C)C(=O)O` [PSM.26], ≤ 200 nM. On the same count and under the same terms, as for `CC(C)C[C@H](NC(=O)CN)C(=O)N[C@@H](CC(C)C)C(=O)NCC(=O)N[C@@H](CO)C(=O)N[C@H](C(=O)N[C@@H](CCC(=O)O)C(=O)N[C@@H](Cc1c[nH]c2ccccc12)C(=O)N[C@@H](C)C(=O)O)[C@@H](C)O` [PSM.427], the figure is > 200 nM; as for `CC(C)C[C@H](NC(=O)[C@@H](N)CCCCN)C(=O)NCC(=O)N[C@@H](CO)C(=O)NCC(=O)N[C@@H](CC(N)=O)C(=O)N[C@@H](CC(=O)O)C(=O)N[C@@H](Cc1ccccc1)C(=O)N[C@@H](CCC(=O)O)C(=O)N[C@H](C(=O)O)C(C)C` [PSM.514], > 200 nM; as for `CC[C@H](C)[C@H](NC(=O)[C@H](Cc1ccccc1)NC(=O)[C@H](C)NC(=O)[C@H](CCCNC(=N)N)NC(=O)[C@H](CCC(=O)O)NC(=O)[C@H](CC(C)C)NC(=O)[C@H](Cc1ccccc1)NC(=O)[C@H](CCSC)NC(=O)[C@H](CC(C)C)NC(=O)[C@@H](N)CCC(N)=O)C(=O)O` [PSM.667], ≤ 200 nM.
